Assays:
Conditions in all cases: incubation time: 72 h
BT-474 [1] = assay: normalised response (% of control), CellTox Green; higher = less cell death (100 = DMSO, 0 = benzethonium chloride kill control)
Outline: (§1)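 A 20 µl suspension of breast cancer cells was seeded into each well of 384-well plates containing compound at 5 concentrations in 10-fold steps over a compound-specific 10,000-fold range. After 72 h incubation, CellTox Green fluorescence (485/520 nm) was read first, and CellTiter-Glo luminescence was read after 10 min at room temperature. Each plate was normalised against 0.1 % DMSO (100) and a positive kill control (0), and each value is the normalised signal at one concentration.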

BT-549 [2] = assay: as above
Outline: as §1

CAL-51 [3] = assay: as above
Outline: as §1

CAL-85-1 [4] = assay: as above
Outline: as §1

MDA-MB-436 [5] = assay: as above
Outline: as §1

MDA-MB-231 [6] = assay: as above
Outline: as §1

HDQ-P1 [7] = assay: as above
Outline: as §1

CAL-120 [8] = assay: as above
Outline: as §1

DU-4475 [9] = assay: as above
Outline: as §1

MDA-MB-468 [10] = assay: as above
Outline: as §1

Hs578T [11] = assay: as above
Outline: as §1

MFM-223 [12] = assay: as above
Outline: as §1

CAL-148 [13] = assay: as above
Outline: as §1

HCC1599 [14] = assay: as above
Outline: as §1

HCC1937 [15] = assay: as above
Outline: as §1

MDA-MB-453 [16] = assay: as above
Outline: as §1

MCF-10A [17] = assay: as above
Outline: as §1

HCC1143 [18] = assay: as above
Outline: as §1

BT-474 [19] = assay: normalised response (% of control), CellTiter-Glo; higher = more viable cells (100 = DMSO, 0 = benzethonium chloride kill control)
Outline: as §1

BT-549 [20] = assay: as above
Outline: as §1

CAL-51 [21] = assay: as above
Outline: as §1

SK-BR-3 = assay: as above
Outline: as §1

CAL-85-1 [22] = assay: as above
Outline: as §1

MDA-MB-436 [23] = assay: as above
Outline: as §1

MDA-MB-231 [24] = assay: as above
Outline: as §1

HDQ-P1 [25] = assay: as above
Outline: as §1

CAL-120 [26] = assay: as above
Outline: as §1

DU-4475 [27] = assay: as above
Outline: as §1

MDA-MB-468 [28] = assay: as above
Outline: as §1

Hs578T [29] = assay: as above
Outline: as §1

MFM-223 [30] = assay: as above
Outline: as §1

CAL-148 [31] = assay: as above
Outline: as §1

HCC1599 [32] = assay: as above
Outline: as §1

HCC1937 [33] = assay: as above
Outline: as §1

MDA-MB-453 [34] = assay: as above
Outline: as §1

MCF-10A [35] = assay: as above
Outline: as §1

HCC1143 [36] = assay: as above
Outline: as §1

SMILES | normalised response (BT-474 [1]) | normalised response (BT-549 [2]) | normalised response (CAL-51 [3]) | normalised response (CAL-85-1 [4]) | normalised response (MDA-MB-436 [5]) | normalised response (MDA-MB-231 [6]) | normalised response (HDQ-P1 [7]) | normalised response (CAL-120 [8]) | normalised response (DU-4475 [9]) | normalised response (MDA-MB-468 [10]) | normalised response (Hs578T [11]) | normalised response (MFM-223 [12]) | normalised response (CAL-148 [13]) | normalised response (HCC1599 [14]) | normalised response (HCC1937 [15]) | normalised response (MDA-MB-453 [16]) | normalised response (MCF-10A [17]) | normalised response (HCC1143 [18]) | normalised response (BT-474 [19]) | normalised response (BT-549 [20]) | normalised response (CAL-51 [21]) | normalised response (SK-BR-3) | normalised response (CAL-85-1 [22]) | normalised response (MDA-MB-436 [23]) | normalised response (MDA-MB-231 [24]) | normalised response (HDQ-P1 [25]) | normalised response (CAL-120 [26]) | normalised response (DU-4475 [27]) | normalised response (MDA-MB-468 [28]) | normalised response (Hs578T [29]) | normalised response (MFM-223 [30]) | normalised response (CAL-148 [31]) | normalised response (HCC1599 [32]) | normalised response (HCC1937 [33]) | normalised response (MDA-MB-453 [34]) | normalised response (MCF-10A [35]) | normalised response (HCC1143 [36])
CC1=C(/C=C/C(C)=C/C=C/C(C)=C/C(=O)O)C(C)(C)CCC1 [Tretinoin] (10000 nM) | 68.7% | 76.9% | 98.5% | 55.4% | 88.9% | 36.8% | 80.3% | 101% | 98% | 127% | 75.1% | 103% | 102% | 102% | 61.1% | 94.4% | 73.5% | 84.1% | 62.2% | 62.2% | 86.2% | 21.8% | 56.5% | 79.2% | 63.5% | 90% | 98.2% | 89.9% | 81% | 72.9% | 78.9% | 75% | 61.6% | 72.3% | 56.4% | 60.7% | 84.7%
COc1cc2c(NC3CCN(C(C)C)CC3)nc(C3CCCCC3)nc2cc1OCCCN1CCCC1 [UNC0638] (10000 nM) | -17.5% | 17% | -16.4% | -10.2% | 18.6% | -58.7% | 58.6% | -29.4% | 88.3% | -186% | 13.9% | 36.8% | 2.74% | 62.2% | -27% | -11.5% | -76.4% | 94.9% | 2.59% | 1.52% | 17% | 2.89% | 0.26% | 7.47% | 0.6% | 23.3% | 8.51% | 71.8% | 0.31% | 51.9% | 3.95% | 3.47% | 14% | 13.6% | 0.34% | 0.31% | 36.4%
Oc1ncc(N(CCCl)CCCl)c(O)n1 [Uracil mustard] (10000 nM) | 107% | 94.2% | 97.5% | 95.4% | 97.6% | 101% | 83.4% | 107% | 100% | 133% | 135% | 100% | 104% | 99.1% | 98.4% | 98% | 123% | 115% | 99.5% | 97.9% | 78.5% | 100% | 103% | 99.1% | 95.6% | 98.1% | 107% | 99.4% | 101% | 98.3% | 104% | 107% | 115% | 98.9% | 89.4% | 101% | 105%
CCCCC(=O)OCC(=O)[C@]1(O)Cc2c(O)c3c(c(O)c2[C@@H](O[C@H]2C[C@H](NC(=O)C(F)(F)F)[C@H](O)[C@H](C)O2)C1)C(=O)c1c(OC)cccc1C3=O [Valrubicin] (5000 nM) | 112% | 208% | 106% | 170% | 147% | 205% | 134% | 128% | 147% | 548% | 193% | 118% | 119% | 196% | 183% | 150% | 157% | 176% | 40.1% | 13.4% | 0.2% | 8.77% | 37% | 35.4% | 47.7% | 45.4% | 59.3% | 0.06% | 22.8% | 34.1% | 40.8% | 0.81% | 24.8% | 50.2% | 22.1% | 9.91% | 19.9%

Source: the supplement of paper PMC4862054
